Results published in patent US6734206B1, “3-oxa-8-azaprostaglandin analogs as agents for lowering intraocular pressure” (Allergan, Inc., priority 2003, dated 2004).

Assays:
hEP4 [1] = target: T1, hEP4 (Homo sapiens, UniProt P35408); experiment: Functional data, human EP4 receptor; assay type: cell-based; details: NA = not active
T1 construct: expressed in transfected cells
Experimental: (§1) Plasmids encoding the human EP1, EP2, EP3, EP4, FP, TP, IP and DP receptors were prepared by cloning the respective coding sequences into the eukaryotic expression vector pCEP4 (Invitrogen). The pCEP4 vector contains an Epstein Barr virus (EBV) origin of replication, which permits episomal replication in primate cell lines expressing EBV nuclear antigen (EBNA-1). It also contains a hygromycin resistance gene that is used for eukaryotic selection. The cells employed for stable transfection were human embryonic kidney cells (HEK-293) that were transfected with and express the EBNA-1 protein. These HEK-293-EBNA cells (Invitrogen) were grown in medium containing Geneticin (G418) to maintain expression of the EBNA-1 protein. HEK-293 cells were grown in DMEM with 10% fetal bovine serum (FBS), 250 μg ml^−1 G418 (Life Technologies) and 200 μg ml^−1 gentamicin or penicillin/streptomycin.
(§2) For transfection, the cells were grown to 50-60% confluency on 10 cm plates. The plasmid pCEP4 incorporating cDNA inserts for the respective human prostanoid receptor (20 μg) was added to 500 μl of 250 mM CaCl2. HEPES buffered saline×2 (2×HBS, 280 mM NaCl, 20 mM HEPES acid, 1.5 mM Na2HPO4, pH 7.05-7.12) was then added dropwise to a total of 500 μl, with continuous vortexing at room temperature. After 30 min, 9 ml DMEM were added to the mixture. The DNA/DMEM/calcium phosphate mixture was then added to the cells, which had been previously rinsed with 10 ml PBS. The cells were then incubated for 5 hr at 37° C. in humidified 95% air/5% CO2. The calcium phosphate solution was then removed and the cells were treated with 10% glycerol in DMEM for 2 min. The glycerol solution was then replaced by DMEM with 10% FBS. The cells were incubated overnight and the medium was replaced by DMEM/10% FBS containing 250 μg ml^−1 G418 and penicillin/streptomycin. The following day hygromycin B was added to a final concentration of 200 μg ml^−1.
(§3) Ten days after transfection, hygromycin B resistant clones were individually selected and transferred to a separate well on a 24 well plate. At confluence each clone was transferred to one well of a 6 well plate, and then expanded in a 10 cm dish. Cells were maintained under continuous hygromycin selection until use.

hTP = target: T2, hTP (Homo sapiens, UniProt P21731); experiment: Functional data, human TP receptor; assay type: cell-based; details: NA = not active
T2 construct: expressed in transfected cells
T2 sequence (P21731 1-343): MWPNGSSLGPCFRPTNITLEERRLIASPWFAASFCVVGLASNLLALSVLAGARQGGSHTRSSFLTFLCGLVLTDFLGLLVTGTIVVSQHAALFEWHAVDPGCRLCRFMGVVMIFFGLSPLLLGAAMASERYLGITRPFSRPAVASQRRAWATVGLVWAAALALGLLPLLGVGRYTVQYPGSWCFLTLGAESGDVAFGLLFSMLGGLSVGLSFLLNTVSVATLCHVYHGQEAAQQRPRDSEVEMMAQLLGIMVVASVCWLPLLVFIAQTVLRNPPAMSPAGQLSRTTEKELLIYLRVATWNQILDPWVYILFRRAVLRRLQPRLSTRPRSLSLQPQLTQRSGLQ
Experimental: as §1, §2, §3

hEP4 [2] = target: T1, hEP4; experiment: Radioligand binding, human EP4 receptor; details: NA = not active
Experimental: as §1
(§4) For transfection, the cells were grown to 50-60% confluency on 10 cm plates. The plasmid pCEP4 incorporating cDNA inserts for the respective human prostanoid receptor (20 μg) was added to 500 μl of 250 mM CaCl2. HEPES buffered saline×2 (2×HBS, 280 mM NaCl, 20 mM HEPES acid, 1.5 mM Na2HPO4, pH 7.05-7.12) was then added dropwise to a total of 500 μl, with continuous vortexing at room temperature. After 30 min, 9 ml DMEM were added to the mixture. The DNA/DMEM/calcium phosphate mixture was then added to the cells, which had been previously rinsed with 10 ml PBS. The cells were then incubated for 5 hr at 37° C. in humidified 95% air/5% CO2. […]
Radioligand binding studies on plasma membrane fractions prepared for cells stably transfected with the cat or human receptor were performed as follows. […] The pellet was then resuspended in TME buffer to provide a final protein concentration of 1 mg/ml, as determined by Bio-Rad assay. […]
The binding of [^3H](N) PGE2 (specific activity 165 Ci/mmol) was determined in duplicate and in at least 3 separate experiments. […] Competition studies were performed using a final concentration of 2.5 or 5 nM [^3H](N) PGE2 and non-specific binding was determined with 10^−5 M unlabelled PGE2.

hEP1 = target: T3, hEP1 (Homo sapiens, UniProt P34995); experiment: Functional data, human EP1 receptor; assay type: cell-based; details: NA = not active
T3 construct: expressed in transfected cells
T3 sequence (P34995 1-402): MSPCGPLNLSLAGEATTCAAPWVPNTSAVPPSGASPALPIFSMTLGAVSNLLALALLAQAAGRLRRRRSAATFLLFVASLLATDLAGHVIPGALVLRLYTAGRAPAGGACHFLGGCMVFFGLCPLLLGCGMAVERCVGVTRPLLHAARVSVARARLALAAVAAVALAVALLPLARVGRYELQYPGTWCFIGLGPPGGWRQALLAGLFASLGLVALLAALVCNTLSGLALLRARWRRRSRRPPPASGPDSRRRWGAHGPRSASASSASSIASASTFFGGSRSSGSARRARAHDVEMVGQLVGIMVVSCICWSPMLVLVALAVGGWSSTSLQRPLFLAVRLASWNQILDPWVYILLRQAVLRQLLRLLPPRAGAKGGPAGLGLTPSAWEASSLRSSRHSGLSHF
Experimental: as §1, §2
Ten days after transfection, hygromycin B resistant clones were individually selected and transferred to a separate well on a 24 well plate. […]

hEP3A = target: T4, hEP3A (Homo sapiens, UniProt P43115); experiment: Functional data, human EP3A receptor; assay type: cell-based; details: NA = not active
T4 construct: expressed in transfected cells
T4 sequence (P43115 1-390): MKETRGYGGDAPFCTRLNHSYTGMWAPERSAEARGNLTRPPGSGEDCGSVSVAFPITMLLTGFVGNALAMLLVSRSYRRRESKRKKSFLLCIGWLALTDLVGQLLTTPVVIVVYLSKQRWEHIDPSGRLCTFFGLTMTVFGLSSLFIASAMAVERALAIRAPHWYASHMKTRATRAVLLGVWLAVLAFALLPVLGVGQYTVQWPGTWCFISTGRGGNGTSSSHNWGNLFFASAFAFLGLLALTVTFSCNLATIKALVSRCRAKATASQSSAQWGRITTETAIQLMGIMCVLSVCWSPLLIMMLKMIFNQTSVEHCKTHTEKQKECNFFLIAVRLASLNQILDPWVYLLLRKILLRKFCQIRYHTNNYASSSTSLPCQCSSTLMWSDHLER
Experimental: as §1
as §4, with “mixture.” for “mixture. The DNA/DMEM/calcium phosphate mixture was then added to the cells, which had been previously rinsed with 10 ml PBS. The cells were then incubated for 5 hr at 37° C. in humidified 95% air/5% CO2.”

normotensive dogs [3] = experiment: Intraocular pressure in dogs, applanation pneumatonometry; assay type: in vivo, dog; details: topical once daily dosing, 0.1%, at 52 h, normotensive dogs (n=8)
Experimental: (§5) The effects of the compounds of this invention on intraocular pressure may be measured as follows. The compounds are prepared at the desired concentrations in a vehicle comprising 0.1% polysorbate 80 and 10 mM TRIS base. Dogs are treated by administering 25 μl to the ocular surface, the contralateral eye receives vehicle as a control. Intraocular pressure is measured by applanation pneumatonometry. A topical once daily dosing of (4-{(R)-2-[(E)-4-(3-chlorophenyl)-3-hydroxy-but-1-enyl]-5-oxo-pyrrolidin-1-yl}-butoxy)-acetic acid [example 8] […] The maximum ocular surface hyperemia score was 1.5 (1.5 at 26, 50 and 52 h).

normotensive dogs [4] = experiment: Ocular surface hyperemia in dogs; assay type: in vivo, dog; details: topical once daily dosing, 0.1%, 1.5 at 26, 50 and 52 h
Experimental: as §5

T1 sequence (P35408 whole entry): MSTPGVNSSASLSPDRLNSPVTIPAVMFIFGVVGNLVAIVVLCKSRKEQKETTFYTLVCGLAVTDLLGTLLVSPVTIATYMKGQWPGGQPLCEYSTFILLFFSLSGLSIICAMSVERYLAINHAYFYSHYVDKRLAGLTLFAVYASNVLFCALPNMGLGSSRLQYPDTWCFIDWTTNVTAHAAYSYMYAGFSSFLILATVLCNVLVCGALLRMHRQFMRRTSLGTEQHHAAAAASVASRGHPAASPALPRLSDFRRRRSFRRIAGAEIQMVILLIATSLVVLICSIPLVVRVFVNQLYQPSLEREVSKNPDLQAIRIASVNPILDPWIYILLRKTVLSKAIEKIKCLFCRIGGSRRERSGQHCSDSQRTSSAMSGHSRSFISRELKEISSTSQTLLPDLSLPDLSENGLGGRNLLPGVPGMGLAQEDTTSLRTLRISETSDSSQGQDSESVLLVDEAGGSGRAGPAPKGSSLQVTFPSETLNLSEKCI

SMILES | EC50 (hEP4 [1]) [nM] | EC50 (hTP) [nM] | IC50 (hEP4 [2]) [nM] | EC50 (hEP1) [nM] | also measured
COC(=O)COCCCCN1C(=O)CCC1CCC(=O)Cc1cccc(Cl)c1 (stereo in doubt) [Example 3, (4-{(R)-2-[4-(3-Chlorophenyl)-3-oxo-butyl]-5-oxo-pyrrolidin-1-yl}-butoxy)-acetic Acid Methyl Ester] | > 10000 | > 10000 | – | – | –
O=C(O)COCCCCN1C(=O)CCC1CCC(=O)Cc1cccc(Cl)c1 (stereo in doubt) [Example 4, (4-{(R)-2-[4-(3-Chlorophenyl)-3-oxo-butyl]-5-oxo-pyrrolidin-1-yl}-butoxy)-acetic Acid] | 1720 | > 10000 | 3100 | – | –
COC(=O)COCCCCN1C(=O)CC[C@@H]1CC[C@H](O)Cc1cccc(Cl)c1 (stereo in doubt) [Example 5, (4-{(R)-2-[4-(3-Chlorophenyl)-3-hydroxy-butyl]-5-oxo-pyrrolidin-1-yl}-butoxy)-acetic Acid Methyl Ester] | 1780 | – | – | > 10000 | –
O=C(O)COCCCCN1C(=O)CC[C@@H]1CC[C@H](O)Cc1cccc(Cl)c1 (stereo in doubt) [Example 6, (4-{(R)-2-[4-(3-Chlorophenyl)-3-hydroxy-butyl]-5-oxo-pyrrolidin-1-yl}-butoxy)-acetic Acid] | 192 | > 10000 | 562 | 3810 | –
COC(=O)COCCCCN1C(=O)CC[C@@H]1/C=C/C(=O)Cc1cccc(Cl)c1 [Example 1, (4-{(R)-2-[(E)-4-(3-chlorolphenyl)-3-oxo-but-1-enyl]-5-oxo-pyrrolidin-1-yl}-butoxy)-acetic Acid Methyl Ester] | 61 | – | – | 721 | –
O=C(O)COCCCCN1C(=O)CC[C@@H]1/C=C/C(=O)Cc1cccc(Cl)c1 [Example 2] | – | < 10000 | – | – | EC50 (hEP3A): > 10000 nM
COC(=O)COCCCCN1C(=O)CC[C@@H]1/C=C/[C@H](O)Cc1cccc(Cl)c1 [Example 7, (4-{(R)-2-[(E)-4-(3-Chlorophenyl)-3-hydroxy-but-1-enyl]-5-oxo-pyrrolidin-1-yl}-butoxy)-acetic Acid Methyl Ester] | > 10000 | – | – | – | –
O=C(O)COCCCCN1C(=O)CC[C@@H]1/C=C/[C@H](O)Cc1cccc(Cl)c1 [Example 8, (4-{(R)-2-[(E)-4-(3-Chlorolphenyl)-3-hydroxy-but-1-enyl]-5-oxo-pyrrolidin-1-yl}-butoxy)-acetic Acid] | 11 | > 10000 | 30 | – | maximum IOP decrease from baseline (normotensive dogs [3]): 4.9 mmHg; maximum IOP decrease from baseline (percent) (normotensive dogs [3]): 26.6%; maximum ocular surface hyperemia score (normotensive dogs [4]): 1.5
